From patent publication US11666547B2, “Methods for treating cognitive deficits in a subject having schizophrenia, bipolar disorder, or psychiatric depression, and exhibiting cognitive deficits by administering an antagonist of the Na+-K+-2Cl-cation-chloride cotransporter isoform 1 (NKCC1)” (NORTHWESTERN UNIVERSITY, priority 2019, dated 2023)

Tests used:
[1] = tested on: PCP treated mouse; experiment: Social interaction in the PCP treated mouse; format: in vivo
[2] = tested on: scPCP-treated mice; experiment: PCP- and amphetamine-induced increase in locomotor activity in scPCP-treated mice; format: in vivo; conditions: bumetanide 0.3 mg/ml, icy
Description: This can be interpreted as evidence for ability to treat delusions and hallucinations in psychotic disorders, including schizophrenia, major depression, bipolar disorder, various dementias, including vascular dementia and other neurodegenerative disorders. These finding have immediate translational value, as bumetanide is an already approved drug that could be promptly used to improve cognition in patients with cognitive impairment, psychosis, or negative symptoms in the disorders cited above.

[3] = tested on: CaMK2A+/- mice; experiment: Y maze in CaMK2A+/- mouse model; format: in vivo; conditions: 0.1 mg/kg, ip, p<0.001
Description: (§1) (See Yamasaki et al., “Alpha-CaMKII deficiency causes immature dentate gyrus, a novel candidate endophenotype of psychiatric disorders,” Molecular Brain, 1 (2008) 6; and McCarthy et al., “Microduplications of 16p11.2 are associated with schizophrenia,” Nat. Gene., 41 (2009) 1223-1227; respectively). Both models are relevant to human conditions. CaMK2A loss causes cognitive dysfunction and has been implication in psychiatric disorders including schizophrenia. (See Yamasaki et al., “Alpha-CaMKII deficiency causes immature dentate gyrus, a novel candidate endophenotype of psychiatric disorders,” Molecular Brain, 1 (2008) 6; Kool et al., “CAMK2-dependent Signaling in Neurons is Essential for Survival,” J. Neuroscience: the official journal of the Society for Neuroscience, 39 (2019) 5424-5439; and Papaleo et al., “Mouse models of genetic effects on cognition: relevance to schizophrenia,” Neuropharmacology, 62 (2012) 1204-1220). […] (See Niarchou et al., “Psychiatric disorders in children with 16p11.2 deletion and duplication,” Translational psychiatry, 9 (2019) 8). […] (FIG. 9).

[4] = tested on: 16p11.2DUP mice; experiment: Novel object recognition in 16p11.2 duplication mouse model; format: in vivo; conditions: 0.1 mg/kg, ip, p<0.001
Description: as §1

[5] = tested on: PCP model of cognitive impairment; experiment: Prevention of development of cognitive impairment, given prior to PCP treatment; format: in vivo, mice; conditions: given prior to one week's treatment with PCP
Description: Bumetanide prevented the development of cognitive impairment when give prior to one weeks treatment with PCP. This is evidence that bumetanide could prevent the onset of cognitive impairment in schizophrenia and bipolar disorder. […] The discovery of these synergistic actions which will have value in the treatment of many neuropsychiatric disorders. Neurosteroids such as allopregnanolone is a GABA A agonist which could be used clinically with bumetanide to treat post-partum depression, other forms of depression.

[6] = tested on: CaMK2A+/- mice; format: in vivo; conditions: for Discrimination index, rescue of NOR deficit, single agent at the dose used in the combination: CaMKIIα+/- mice, agent alone
Description: as §1

[7] = tested on: scPCP-treated mice subjected to chronic unpredictable stress; experiment: Memory deficit in scPCP-treated mice subjected to chronic unpredictable stress (CUS); format: in vivo; conditions: chronic unpredictable stress 21 days, 0.1 mg/kg
Description: Bumetanide acts by blocking the NKCC1 cation-chloride cotransporter and causes the reversal potential of the GABAA-mediated current to become more hyperpolarized (thus the inhibitory effect becomes stronger). […] Most importantly, in-vivo administration of bumetanide rescues cognitive function in PCP mice and also prevents enduring deficit of cognitive function.

[8] = tested on: pyramidal neurons of the infralimbic cortex (ILC) of scPCP mice; experiment: GABAA reversal potential (EGABA), perforated patch recordings in acute mPFC slices; format: cell-based; conditions: bumetanide 0.3 mg/kg ip 30-40 min before dissection, 10 uM perfused into mPFC slice in incubation and recording chambers
Method: FIG. 4. (A) Left Panels: Example traces of GABAA current response by electrical stimulation in mPFC pyramidal neurons in control (top panel, black) and in scPCP (bottom, red). Bipolar electrode was put in layer 1, 100-200 um apart from recording site within layer2/3 with presence of 3 mM kynurenic acid to block any glutamatergic synaptic currents. The response was evoked by the same size of single stimulus (0.2-1 mA, 0.2 ms) at five different holding voltages (−100, −80, −60, −40, −20 mV) for each neuron. For each voltage, a neuron was tested multiple times and those 5-10 traces tested at the same voltage were averaged later for peak analysis. […] Right Panels: Example GABAA reversal potential (EGABA) of a neuron in control (top panel, black) and in scPCP (bottom, red) calculated from traces shown in (A). For the individual neuron, the peak size of current responses was measured (maximal current peak if the evoked response is positive while minimal current peak if negative) and plotted by holding voltages. […] Dotted gray lines to present average resting potentials for each group, which were measured by whole-cell patch recordings from separated neuron groups (each n>7). […] Dotted gray lines represent the resting potentials, which were measured by whole-cell patch recordings in different sets of experiment (each n>7). […]

[9] = tested on: scPCP mice; experiment: Novel object recognition (NOR) test in subchronic phencyclidine (scPCP) mice; format: in vivo, C57BL/6J mice; conditions: for Discrimination index, novel object recognition (rescue of scPCP-induced NOR deficit): male C57BL/6J mice
Method: FIG. 7. Bumetanide treatment rescues the cognitive impairment in scPCP mice. Discrimination index calculated from novel object recognition tests. […] 10 mice were measured for each experimental group.
FIG. 8. Bumetanide rescues Novel Object Recognition task in female scPCP mice. […] Data are from 9 mice per group. One-way ANOVA followed by post-hoc bonferroni correction was done where significance was observed. p<0.01. (Additional data not shown).
To begin filling this gap, here we took advantage of the subchronic phencyclidine (scPCP) treatment, which is a well-established established rodent model of cognitive deficits in schizophrenia (Jentsch and Roth, 1999; Steeds et al. 2015) and performed patch clamp recordings from pyramidal neurons in acute slices of the IL cortex (ILC) and PL cortex (PLC). (FIG. 1).
Routine for mPFC recording. 3 week-old mice were injected with saline (vehicle) or PCP (0.1 mg/kg) two times a day for 7 consecutive days and rested for another 7 days without injections. They were then sacrificed for recordings within 7 days.

[10] = tested on: 16p11.2DUP mice; experiment: Y maze in 16p11.2 duplication mouse model; format: in vivo; conditions: 0.1 mg/kg, ip, p<0.001
Description: as §1

SMILES	Social interaction [1]	PCP-induced increase in locomotor activity ([2]; PCP 10 mg/kg)	Amphetamine-induced increase in locomotor activity ([2]; amphetamine 2.5 mg/kg)	Y maze performance [3]	NOR performance [4]	Development of cognitive impairment [5]	NOR performance ([6]; CaMK2A+/- mice, 0.1 mg/kg, ip, p<0.001)	Discrimination index, rescue of NOR deficit, single agent at the dose used in the combination [6]	Memory deficit [7]	GABAA reversal potential in layer 2/3 and layer 5 of ILC [8]	Performance in the novel object recognition task ([9]; PCP-treated mice, oral administration of a single dose (FIG. 7))	Novel Object Recognition test (rescue of scPCP-induced deficits) ([9]; female C57BL/6J mice, single dose IP, p<0.01)	Discrimination index, novel object recognition (rescue of scPCP-induced NOR deficit) ([9]; 0.1 mg/kg, ip)	Discrimination index, novel object recognition (rescue of scPCP-induced NOR deficit) ([9]; 0.3 mg/ml, icy)	Y maze performance [10]
CCCCNc1cc(C(=O)O)cc(S(N)(=O)=O)c1Oc1ccccc1 [bumetanide]	effective	significantly blocked	significantly blocked	completely rescued	completely rescued	prevented	completely rescued	sub-effective	significantly rescued	normalizes	completely rescues	significantly rescued	completely rescues	completely rescues	completely rescued
Cc1nc2n(c(=O)c1CCN1CCC(c3noc4cc(F)ccc34)CC1)CCCC2 [risperidone]	–	–	–	–	–	–	–	ineffective	–	–	–	–	–	–	–
